These results are taken from patent US20250093329A1, “SCREENING OF COMPOUNDS” (THE UNIVERSITY OF TULSA, priority 2022, published 2025).

Molecules are shown by their SMILES.

What all share (format): cell-based
The subject of one test is each cell line tested. Description: ATP levels by CellTiter-Glo, all cell lines of Table 1 taken together. Particulars: 100 μM compound with 2-DG, Table 1 cell lines. The text has this: A wide variety of ATP luminescing detection reagents are available commercially. So long as the reagent produces a luminescence in the presence of ATP, the reagent will be suitable for use in the present method. Suitable reagents include but are not limited to any ATP dependent luciferase such as but not limited to firefly luciferase, other modified luciferase based reagents, i.e. luciferase derivatives. According to the rapid method for determining the anti-cancer activity of a compound, a sample of living cells is distributed across a number of testing wells. Typically, 96-well plates are used; however, the number of wells is not critical to the current method. When using a 96-well plate the number of living cells will commonly be about 20,000. […] The sample wells contain a cell growth medium to promote cell health and growth and an additive to prevent bacterial contamination of the wells. One common example of the cell growth medium is DMEM with 10% FBS as described above. One example of the additive to prevent bacterial contamination is a solution of penicillin G and streptomycin referred to commonly as Pen-Strep. The Pen-Strep solution typically contains 5000 units of penicillin G and 5000 micrograms of streptomycin. Thus, the rapid determination of anti-cancer compounds can be carried out using the following method. • The desired number of cells are distributed in a 96-well plate containing 100 μL DMEM plus 10% FBS with optional Pen-Strep. • After 24 hours, cells are treated with the compound of interest or a 5% solution of dimethyl sulfoxide (DMSO) in water as a control. • The time period for exposure to the compound of interest and the DMSO control will vary depending on the luminescing detection reagent. However, when using a commercially available reagent such as resazurin (CellTiter Blue commercially available from Promega) or luciferase or a luciferase derivative (CellTiter Glo commercially available from Promega) the time period can be readily determined with reference to literature from the commercial source. Other luminescing detection agents can also be used with minimal experimentation to determine the desired compound exposure time. • Upon completion of the time period for exposure to the compound of interest or the DMSO, 10 μL of the luminescing detection reagent is added and the cells are lysed by a detergent added along with the luminescing detection reagent. • When the reagent is resazurin, as found in CellTiter-Blue the time period for exposure to the compound of interest and the DMSO will be about 24 hours. • When the reagent is luciferase or a luciferase derivative as found in CellTiter-Glo the time period for exposure to the compound of interest and the DMSO will be about 30 minutes to four hours. • The luminescing detection reagent is added over a period of time. • When using resazurin, the time period for the addition of the 10 μl volume takes place over a period of about one to four hours. • When using luciferase or a luciferase derivative, the time period is about 3 minutes to about 7 minutes, typically about 5 minutes. • During the time period of addition of the luminescing detection reagent the resulting luminescence is measured using conventional methods and devices. […] If the compound of interest deactivates the cell, then the cell produces less or no ATP. As a result, the cells in the well treated with the compound of interest will have a lower luminescence value as compared to the cells in wells treated with DMSO. • The value for the cells treated with the compound of interest is reported as a “percent of control” (POC) value. The determination of POC is calculated by dividing the averaged response from duplicate wells containing the cells as treated with the compound of interest by the average response of duplicate control wells which contain only cells and DMSO (in other words, a blank control experiment). […]
Background: In ATP-based viability assays light output follows the ATP content of the culture.

The next test concerns H293. Put plainly: Cytotoxicity testing, CellTiter-Blue assay, 24 hour (FIG. 3). As to conditions: 100 μM, 24 hour compound incubation. The method, then: (§1) The cytotoxicity tests were carried out in the following manner. Living cells are known to convert resazurin to the fluorescent compound resorufin. Test systems which rely upon this reaction are commercially available. One such test is known at the Cell Titer Blue Cell Viability test assay from Promega. Cell cultures for each of the identified cancer lines were obtained from ATCC and maintained in Dulbecco's Modified Eagle Medium (DMEM) supplemented with 10% fetal bovine serum (FBS) and pen/strep. As known to those skilled in the art, DMEM typically includes the components identified below.
(§2) The test method provides for incubating the cell cultures at temperatures which correspond to the range of body temperatures experienced by the patient from which the cancer cells were obtained. Typically, incubation temperatures will be between the temperatures of 36.1° C. and 37.2° C. In most cases incubation will occur at 37° C. Additionally, the cell cultures are kept under an atmosphere which mimics cell conditions of the tumor within the patient's body. In most cases, the tumor microenvironment (TME) is characterized by hypoxia (low oxygen) and may also be characterized by hypercapnia (increased CO2). Hypercapnia results from decreased blood flow which limits CO2 elimination. Restricted CO2 elimination leads to increased HCO3^− conversion to CO2 in order to neutralize lactate as altered tumor cell metabolism produces more CO2 than normal. Normal tissue averages about 5% oxygen with oxygen ranges from about 3% to 7.4%. […] In the case of CO2, normocapnic is around 5% CO2, while hypercapnic can rise to 10% CO2. Therefore, to mimic the environment of the tumor the method utilizes an incubator designed to provide the optimal gaseous environment corresponding to that of the tumor. Thus, the incubator will be capable of maintaining an atmosphere having an oxygen content in the range of […] and a CO2 in the range of 1% to 10%.
(§3) After allowing for proliferation of the cells, the cells were distributed across a plurality of test wells containing from 100 μL DMEM plus 10% FBS and allowed to attach to the surface of the test wells. Typically, the time for attachment will require about 12 hours to about 18 hours. […] Following treatment of the cells with the N-benzyl sulfonamide or control, the toxicity of the compound to the cells will be determined by addition of a luminescing agent. […] Subsequently, the fluorescence of resazurin is measured by excitation at 560 nm and recording the emission at 590 nm within an instrument configured to measure fluorescence intensity. Two commercially available systems are the BioTek Cytation 5 plate reader and the Promega Glomax Multi+detection system. […]
(In general: Alamar Blue is a resazurin reagent that responds to reducing activity.)

Another test concerns NCI-H196. The test is described as above. Particulars: 100 μM, 24 hour compound incubation. Here is the method: as §1, §2, §3
In test [1] the test system is HEK293 (kidney cancer) cells. Put plainly: Traditional versus rapid screening (FIG. 15). As to conditions: DMEM, CellTiter-Glo 1 hr, with or without 2DG, versus CellTiter-Blue/CellTiter-Glo 24 hr. The source says: FIG. 15 provides a comparison of traditional cytotoxicity testing the improved testing method described herein using HEK293 cells (kidney cancer), DMEM media, and the library sulfonamide compounds 1-30 found in FIGS. 1A-1C.
When used to identify compounds for specific patients, the following steps will be carried out: • Individualized patient cells will be acquired from a tumor biopsy and cultured/grown in patient blood serum and/or plasma. (In most instances the cells will be obtained using a needle biopsy; i.e. fine needle aspiration biopsy. Optionally, the cells may be obtained from resected tumor (i.e. excisional biopsy, which is an attempt at complete tumor removal), and/or a core biopsy; (i.e. removal of part of the tumor). Alternatively, cells may be obtained from blood draw samples, which would contain leukemia, lymphoma and myeloma cells.) • The cells (as few as 100 cells per experiment) will be screened directly in patient blood serum and/or plasma in the absence or presence of glycolysis inhibitor, 2-deoxyglucose (2DG) using a rapid (1-2 hr) screening assay (CellTiter-Glo, or “CTG”). • NOTE: while the discussion herein focuses on CTG, other assays suitable for measuring changes in ATP levels will perform equally as well. […] DMEM contains glucose, but L15 has substituted glucose with galactose. […]

As to `Cc1ccc(S(=O)(=O)NCc2c[nH]c3ccccc23)cc1` [Compound 1, N-[(1H-indol-3-yl)methyl]-4-methylbenzenesulfonamide], the “effectiveness across the cell lines, with 2-DG” value with each cell line tested is “little effect”.

`O=S(=O)(NCc1c[nH]c2ccccc12)c1ccccc1` [Compound 3, N-[(1H-indol-3-yl)methyl]benzenesulfonamide]: the “effectiveness across the cell lines, with 2-DG” value with each cell line tested was “little effect”.

Consider `CC(=O)n1cc(CNS(=O)(=O)c2ccc(Cl)cc2)c2ccccc21` [Compound 4, N-[(1-acetyl-1H-indole-3-yl)methyl]-4-chlorobenzenesulfonamide], for which, in the test with each cell line tested, the “effectiveness across the cell lines, with 2-DG” value was “little effect”.

As for `Cc1ccc(S(=O)(=O)NCc2c[nH]c3cccc(Br)c23)cc1` [Compound 5, N-[(4-bromo-1H-indol-3-yl)methyl]-4-methylbenzenesulfonamide], the entries for the “effectiveness, percent reduction in cell viability (FIG. 3)” value with H293 and in the test on NCI-H196 were “effective” and “effectiveness”, respectively. In addition, in test [1], the “sensitivity of rapid assays versus traditional methods (FIG. 15)” value was “enhanced sensitivity”.

As to `Cc1cccc2c(CNS(=O)(=O)c3ccccc3)c[nH]c12` [Compound 6, N-[(7-methyl-1H-indol-3-yl)methyl]benzenesulfonamide], the “effectiveness, percent reduction in cell viability (FIG. 3)” value in the test on H293 is listed as “effective”.

As to `Cc1ccc(S(=O)(=O)NCc2ccc3ncccc3c2)cc1` [Compound 22, 4-methyl-N-(quinolin-6-ylmethyl)benzenesulfonamide], in the test with each cell line tested, the “effectiveness across the cell lines, with 2-DG” value is reported as “little effect”.

As to `COc1ccc(S(=O)(=O)NCc2c[nH]c3ccccc23)cc1` [Compound 23, N-(1H-indol-3-ylmethyl)-4-methoxybenzenesulfonamide], in the test with each cell line tested, the “effectiveness across the cell lines, with 2-DG” value is on record as “little effect”.
